Data reported in paper PMC11063903, “Engineering a human P2X2 receptor with altered ligand selectivity in yeast” (The Journal of Biological Chemistry, 2024).

Experiments:
[1] = target: T1, human P2X2 receptor (Homo sapiens, UniProt Q9UBL9); assay: GCaMP calcium assay of P2X2 expressed in yeast S. cerevisiae, agonist response; type: cell-based; settings: yeast; for EC50: read-out: EC50
T1 construct: expressed in transfected cells; host or cells: S. cerevisiae BY4741 background, P2X2 genome-integrated under a galactose-inducible promoter
T1 sequence (Q9UBL9 1-471): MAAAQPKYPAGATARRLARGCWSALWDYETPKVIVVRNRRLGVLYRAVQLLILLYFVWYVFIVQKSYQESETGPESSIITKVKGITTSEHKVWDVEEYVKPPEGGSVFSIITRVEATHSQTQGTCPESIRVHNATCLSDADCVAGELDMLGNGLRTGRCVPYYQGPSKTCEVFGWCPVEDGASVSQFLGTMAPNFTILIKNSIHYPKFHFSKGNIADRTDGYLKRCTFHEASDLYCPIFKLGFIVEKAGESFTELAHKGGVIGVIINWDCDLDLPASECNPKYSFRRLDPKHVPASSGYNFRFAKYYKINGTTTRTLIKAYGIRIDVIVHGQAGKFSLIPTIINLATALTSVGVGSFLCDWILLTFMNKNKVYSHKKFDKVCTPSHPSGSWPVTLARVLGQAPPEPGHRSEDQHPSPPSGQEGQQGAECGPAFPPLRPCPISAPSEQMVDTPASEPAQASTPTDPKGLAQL
Excerpt: Although P2X receptors are expressed in many eukaryotic organisms including some fungi ([24]), they are not present in S. cerevisiae. For recombinant expression to yield functional P2X channels, receptor proteins must be correctly folded, assembled into trimers, and efficiently trafficked to the plasma membrane. To assess whether P2X ion channels could functionally gate in S. cerevisiae the canonical isoforms of P2X1-7 were co-expressed with aequorin, a calcium-activated photoprotein from the jellyfish Aequorea victoria.
(§1) Genetic knockouts of the calnexin homolog (ΔCne1p) and vacuolar calcium transporter (Δ Vcx1p) (n = 3) were compared to the WT yeast strain (n = 2). […] Statistical analysis was performed using one-way ANOVA with Dunnett’s multiple comparisons test where ∗∗ is p ≤ 0.01. […] Yeast were injected with ATP at 21 s and onset rates from the last six points (40–48 s) were used for calculating the dose response in (D). E and F, kinetic and dose–response measurements of P2X2 with the GCaMP reporter with ATP (n = 4), partial agonist BzATP (n = 3), and agonist 2-chloro-ATP (n = 4). Figures (D and F) share the figure legend with (C). […] Suramin was pre-equilibrated with P2X2-yeast for 10 min and 5 μM ATP was injected.
To expand the assay throughput to accommodate several 96-well plates at a time, we required the acquisition of short-duration signals. Since GCaMP signals are typically measured in terms of ΔF/F0, where ΔF is Fmax-Fmin, and since the signal takes several minutes to reach Fmax, we instead attempted to correlate the rate of signal onset (rather than its amplitude) with channel activity.
Having optimized our yeast strains and assay throughput, we sought to further validate the function of human P2X2 in the yeast host.
GCaMP assays were performed as follows. P2X2 GCaMP strains were designed with a bi-cistronic reporter, in which the GCaMP protein was followed by a 2A peptide and a mScarletI reporter ([53]). The co-translated mScarletI was designed to act as a control for plasmid loss, GCaMP breakage via nonsense mutation, and contamination. […] P2X2-GCaMP strains were cultured and induced as previously described. Samples were induced for 24 h to allow for the accumulation of the mature GCaMP protein. Cells were washed three times in 0.1 M MES/Tris buffer and resuspended with MES/Tris with supplemental calcium. Cells were loaded onto a black, clear bottom microplate and imaged on a FlexStation3 plate reader. Samples were imaged in “flex” mode. Samples were imaged for 48 s at an interval of 1.6 s. Fluorescence was measured with an excitation at 485 nm, and emission 525 nm. At the 21 s mark, 100 μl ligand solution was transferred to the cells. For strains with mScarlet, fluorescence was read with excitation 570 nm/emission 610 nm. Slopes were calculated from the last 6 points of measurement and were normalized to the positive control samples. Any replicate in which the mScarlet value was measured to be over 2 standard deviations less than the mean for that set was discarded from further analysis.

[2] = test system: P2X2; set-up: method as in PMID 12885270; settings: read-out: reported IC50 values; cited from earlier work
[3] = target: T1, human P2X2 receptor; assay: Suramin inhibition of ATP-stimulated P2X2 gating in yeast, GCaMP; type: cell-based; settings: suramin pre-equilibrated 10 min, 5 μM ATP injected, n = 4; read-out: IC50 (second value in brackets) (converted)
Procedure: as §1, with “injected. […]” for “injected.”
GCaMP assays were performed as follows. […] Cells were loaded onto a black, clear bottom microplate and imaged on a FlexStation3 plate reader. […] Fluorescence was measured with an excitation at 485 nm, and emission 525 nm. […] For strains with mScarlet, fluorescence was read with excitation 570 nm/emission 610 nm. Slopes were calculated from the last 6 points of measurement and were normalized to the positive control samples. Any replicate in which the mScarlet value was measured to be over 2 standard deviations less than the mean for that set was discarded from further analysis.

[4] = test system: P2X2; settings: mammalian cells; cited from earlier work
[5] = kinetic and dose-response GCaMP assay, Fig. 1E-F

| Molecule | peak amplitudes relative to the canonical ATP ligand ([1]; GCaMP kinetic assay) | pEC50 [1, 5] [M] | EC50 [1, 5] [nM] | IC50 [2] [nM] | IC50 [3] [nM] | EC50 [4] [nM] |
| --- | --- | --- | --- | --- | --- | --- |
| 2′(3′)-O-(4-Benzoylbenzoyl)adenosine-5′-triphosphate [BzATP] | less than 50% | 5.89 ± 0.096 | 1280 | – | – | – |
| Cc1ccc(C(=O)Nc2ccc(S(=O)(=O)O)c3cc(S(=O)(=O)O)cc(S(=O)(=O)O)c23)cc1NC(=O)c1cccc(NC(=O)Nc2cccc(C(=O)Nc3cc(C(=O)Nc4ccc(S(=O)(=O)O)c5cc(S(=O)(=O)O)cc(S(=O)(=O)O)c45)ccc3C)c2)c1 [suramin] | – | – | – | 10000 | 26900 | – |
| Nc1nc(Cl)nc2c1ncn2[C@@H]1O[C@H](COP(=O)(O)OP(=O)(O)OP(=O)(O)O)[C@@H](O)[C@H]1O [2-Chloro ATP, 2-Chloro-Adenosinetriphosphate] | – | – | 1000 | – | – | 2500 |
